In EP0527889B1, “QUINOLIZINONE TYPE COMPOUNDS” (priority 1990, dated 1991):
Structures can show the parent of a compound that is named as a salt.

Columns and labels:
[1] = system: Acinetobacter calcoaceticus CMX 669; test: In vitro antibacterial activity, MIC by agar dilution; type: cell-based; details: BHI agar, 35-37°C, 20-24 hours, unit assumed
In short: (§1)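 Agar dilution on BHI agar, inoculated by replicator at approximately 10^4 CFU per spot (1:100 dilution, 1:10 for slow growers). Incubated at about 35–37 °C for 20–24 h. MIC is the lowest concentration giving no growth vs compound-free control; ciprofloxacin as control antibiotic.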

[2] = system: Enterobacter aerogenes ATCC 13048; test: as above; type: cell-based; details: BHI agar, 35-37°C, 20-24 hours, unit assumed
In short: as §1

[3] = system: Enterococcus faecium ATCC 8043; test: as above; type: cell-based; details: BHI agar, 35-37°C, 20-24 hours, unit assumed
In short: as §1

[4] = system: Escherichia coli DC-2; test: as above; type: cell-based; details: BHI agar, 35-37°C, 20-24 hours, unit assumed
In short: as §1

[5] = system: Escherichia coli H560; test: as above; type: cell-based; details: BHI agar, 35-37°C, 20-24 hours, unit assumed
In short: as §1

[6] = system: Escherichia coli JUHL; test: as above; type: cell-based; details: BHI agar, 35-37°C, 20-24 hours, unit assumed
In short: as §1

[7] = system: Escherichia coli KNK 437; test: as above; type: cell-based; details: BHI agar, 35-37°C, 20-24 hours, unit assumed
In short: as §1

[8] = system: Escherichia coli SS; test: as above; type: cell-based; details: BHI agar, 35-37°C, 20-24 hours, unit assumed
In short: as §1

[9] = system: Klebsiella pneumoniae ATCC 8045; test: as above; type: cell-based; details: BHI agar, 35-37°C, 20-24 hours, unit assumed
In short: as §1

[10] = system: Micrococcus luteus ATCC 4698; test: as above; type: cell-based; details: BHI agar, 35-37°C, 20-24 hours, unit assumed
In short: as §1

[11] = system: Micrococcus luteus ATCC 9341; test: as above; type: cell-based; details: BHI agar, 35-37°C, 20-24 hours, unit assumed
In short: as §1

[12] = system: Providencia stuartii CMX 640; test: as above; type: cell-based; details: BHI agar, 35-37°C, 20-24 hours, unit assumed
In short: as §1

[13] = system: Pseudomonas aeruginosa 2862; test: as above; type: cell-based; details: BHI agar, 35-37°C, 20-24 hours, unit assumed
In short: as §1

[14] = system: Pseudomonas aeruginosa 5263; test: as above; type: cell-based; details: BHI agar, 35-37°C, 20-24 hours, unit assumed
In short: as §1

[15] = system: Pseudomonas aeruginosa A5007; test: as above; type: cell-based; details: BHI agar, 35-37°C, 20-24 hours, unit assumed
In short: as §1

[16] = system: Pseudomonas aeruginosa BMH10; test: as above; type: cell-based; details: BHI agar, 35-37°C, 20-24 hours, unit assumed
In short: as §1

[17] = system: Pseudomonas aeruginosa K799/61; test: as above; type: cell-based; details: BHI agar, 35-37°C, 20-24 hours, unit assumed
In short: as §1

[18] = system: Pseudomonas aeruginosa K799/WT; test: as above; type: cell-based; details: BHI agar, 35-37°C, 20-24 hours, unit assumed
In short: as §1

[19] = system: Pseudomonas cepacia 296I; test: as above; type: cell-based; details: BHI agar, 35-37°C, 20-24 hours, unit assumed
In short: as §1

[20] = system: Staphylococcus aureus 1775; test: as above; type: cell-based; details: BHI agar, 35-37°C, 20-24 hours, unit assumed
In short: as §1

[21] = system: Staphylococcus aureus 642A; test: as above; type: cell-based; details: BHI agar, 35-37°C, 20-24 hours, unit assumed
In short: as §1

[22] = system: Staphylococcus aureus A-5278; test: as above; type: cell-based; details: BHI agar, 35-37°C, 20-24 hours, unit assumed
In short: as §1

[23] = system: Staphylococcus aureus A5177; test: as above; type: cell-based; details: BHI agar, 35-37°C, 20-24 hours, unit assumed
In short: as §1

[24] = system: Staphylococcus aureus ATCC 6538P; test: as above; type: cell-based; details: BHI agar, 35-37°C, 20-24 hours, unit assumed
In short: as §1

[25] = system: Staphylococcus aureus CMX 553; test: as above; type: cell-based; details: BHI agar, 35-37°C, 20-24 hours, unit assumed
In short: as §1

[26] = system: Staphylococcus aureus NCTC 10649; test: as above; type: cell-based; details: BHI agar, 35-37°C, 20-24 hours, unit assumed
In short: as §1

[27] = system: Staphylococcus epidermidis 3519; test: as above; type: cell-based; details: BHI agar, 35-37°C, 20-24 hours, unit assumed
In short: as §1

[28] = system: Streptococcus agalactaciae CMX 508; test: as above; type: cell-based; details: BHI agar, 35-37°C, 20-24 hours, unit assumed
In short: as §1

[29] = system: Streptococcus bovis A5169; test: as above; type: cell-based; details: BHI agar, 35-37°C, 20-24 hours, unit assumed
In short: as §1

[30] = system: Streptococcus pyrogenes 2548 INDUC; test: as above; type: cell-based; details: BHI agar, 35-37°C, 20-24 hours, unit assumed
In short: as §1

[31] = system: Streptococcus pyrogenes CONST; test: as above; type: cell-based; details: BHI agar, 35-37°C, 20-24 hours, unit assumed
In short: as §1

[32] = system: Streptococcus pyrogenes EES61; test: as above; type: cell-based; details: BHI agar, 35-37°C, 20-24 hours, unit assumed
In short: as §1

[33] = system: Staphylococcus aureus NCTC 10649; test: In vivo antibacterial activity in mice (protection from lethal intraperitoneal infection); details: NCTC10649, 144 h, S. aureus, CF-1 female mice infected intraperitoneally with 100 times the LD50, treated at 1 and 5 hr after infection, cumulative mortalities on the sixth day
Description: (§2) The in vivo antibacterial activity of the compounds of the present invention was determined as follows: Aqueous solutions of the test compounds were prepared by dissolving the compound in distilled water, except for the compounds of examples 169 and 170 which were dissolved in a solution of 2% DMSO in distilled water.
(§3) After 18 hr incubation, a culture of Staphylococcus aureus NCTC 10649 was serially diluted by using 10-fold dilutions in 5% (w/v) hog gastric mucin. Cultures (0.5 mL) in a dilution from 10^-1 to 10^-8 were injected intraperitoneally into CF-1 female mice weighing approximately 20g. The LD50 (median lethal dose) for the test organism was calculated from the cumulative mortalities on the sixth day by the using the Reed and Muench procedure (Reed, L.J., and H. Muench, Amer. J. Hygiene, 27, 493 (1938)).
(§4) The above 18 hr culture was diluted in 5% (w/v) hog gastric mucin to obtain 100 times the LD50, and 0.5 mL was injected intraperitoneally into mice. The mice were treated subcutaneously (sc) or orally (po) with a specific amount of the test compound divided equally to be administered at 1 and 5 hr after infection. A group of 10 animals each for at least three dose levels was thus treated, and the deaths were recorded daily for 6 days. Ten mice were left untreated as infection control. ED50 values were calculated from the cumulative mortalities on the sixth day after infection by using the trimmed version of the Logit method ( Hamilton, M.A., R.C. Russo, and R.V. Thurston, Environ. Sci. Technol. 11, 714 (1977)).

[34] = system: Escherichia coli JUHL; test: as above; details: 144 h, E. coli JUHL, mice infected intraperitoneally, treated at 1 and 5 hr after infection, cumulative mortalities on the sixth day
Description: as §2, §3, §4
The LD50 for Escherichia coli JUHL was determined in a manner similar to that above for S. aureus. The 18 hr cultures of this organism were also prepared for po and sc testing in mice, from which ED50 values were calculated. Positive controls were run with temafloxacin as the test compound, for which ED50 values were also calculated.

Row | Structure (SMILES) | MIC values [1] [µg/mL] | MIC values [2] [µg/mL] | MIC values [3] [µg/mL] | MIC values [4] [µg/mL] | MIC values [5] [µg/mL] | MIC values [6] [µg/mL] | MIC values [7] [µg/mL] | MIC values [8] [µg/mL] | MIC values [9] [µg/mL] | MIC values [10] [µg/mL] | MIC values [11] [µg/mL] | MIC values [12] [µg/mL] | MIC values [13] [µg/mL] | MIC values [14] [µg/mL] | MIC values [15] [µg/mL] | MIC values [16] [µg/mL] | MIC values [17] [µg/mL] | MIC values [18] [µg/mL] | MIC values [19] [µg/mL] | MIC values [20] [µg/mL] | other results
1 | CCC[C@H](N)C(=O)NC1CCN(c2nc3c(-c4ccc(F)cc4F)cc(C(=O)O)c(=O)n3cc2F)C1 (stereo partly drawn) [Example 166, 9-(2,4-Difluorophenyl)-3-fluoro-2-(3-(N-(S)-norvalyl)aminopyrrolidin-1-yl)-6H-6-oxopyrido[1,2-a]pyrimidine-7-carboxylic acid hydrochloride salt] | 3.1 | 3.1 | 12.5 | 12.5 | 0.78 | 0.78 | 6.2 | 0.05 | 1.56 | 25 | 50 | > 100 | > 100 | > 100 | 6.2 | 3.1 | 0.39 | 6.2 | > 100 | > 100 | MIC values [21]: 1.56 µg/mL; MIC values [22]: 1.56 µg/mL; MIC values [23]: 1.56 µg/mL; MIC values [24]: 0.39 µg/mL; MIC values [25]: 3.1 µg/mL; MIC values [26]: 0.39 µg/mL; MIC values [27]: 0.78 µg/mL; MIC values [28]: 3.1 µg/mL; MIC values [29]: 25 µg/mL; MIC values [30]: 1.56 µg/mL; MIC values [31]: 1.56 µg/mL; MIC values [32]: 1.56 µg/mL; ED50 ([33]; po): > 24 mg/kg; ED50 ([33]; sc): 8 mg/kg; ED50 ([34]; po): 25 mg/kg; ED50 ([34]; sc): < 2.5 mg/kg
2 | C[C@H](N)C(=O)NC1CCN(c2nc3c(-c4ccc(F)cc4F)cc(C(=O)O)c(=O)n3cc2F)C1 (stereo partly drawn) [Example 167, 2-(3-(N-(S)-Alanyl)aminopyrrolidin-1-yl)-9-(2,4-difluorophenyl)-3-fluoro-6H-6-oxopyrido[1,2-a]pyrimidine-7-carboxylic acid hydrochloride] | 12.5 | 3.1 | 12.5 | 25 | 1.56 | 1.56 | 25 | 0.05 | 3.1 | 50 | 50 | 100 | > 100 | > 100 | 6.2 | 12.5 | 1.56 | 6.2 | 100 | > 100 | MIC values [21]: 3.1 µg/mL; MIC values [22]: 1.56 µg/mL; MIC values [23]: 3.1 µg/mL; MIC values [24]: 0.78 µg/mL; MIC values [25]: 6.2 µg/mL; MIC values [26]: 0.78 µg/mL; MIC values [27]: 3.1 µg/mL; MIC values [28]: 6.2 µg/mL; MIC values [29]: 12.5 µg/mL; MIC values [30]: 1.56 µg/mL; MIC values [31]: 3.1 µg/mL; MIC values [32]: 6.2 µg/mL; ED50 ([33]; po): 14.4 mg/kg; ED50 ([33]; sc): 2.7 mg/kg; ED50 ([34]; po): 16.6 mg/kg; ED50 ([34]; sc): < 2.5 mg/kg
3 | C[C@H](N)C(=O)N[C@@H](C)C(=O)NC1CCN(c2nc3c(-c4ccc(F)cc4F)cc(C(=O)O)c(=O)n3cc2F)C1 (stereo partly drawn) [Example 168, 2-(3-(N-(S)-Alanyl-(S)-alanyl)aminopyrrolidin-1-yl)-9-(2,4-difluorophenyl)-3-fluoro-6H-6-oxopyrido[1,2-a]pyrimidine-7-carboxylic acid hydrochloride] | 12.5 | 3.1 | 12.5 | 25 | 0.78 | 0.78 | 12.5 | 0.05 | 3.1 | 50 | 50 | 100 | > 100 | > 100 | 12.5 | 3.1 | 1.56 | 6.2 | > 100 | > 100 | MIC values [21]: 3.1 µg/mL; MIC values [22]: 3.1 µg/mL; MIC values [23]: 3.1 µg/mL; MIC values [24]: 0.78 µg/mL; MIC values [25]: 6.2 µg/mL; MIC values [26]: 0.78 µg/mL; MIC values [27]: 3.1 µg/mL; MIC values [28]: 6.2 µg/mL; MIC values [29]: 12.5 µg/mL; MIC values [30]: 1.56 µg/mL; MIC values [31]: 3.1 µg/mL; MIC values [32]: 6.2 µg/mL; ED50 ([33]; po): 3 mg/kg; ED50 ([33]; sc): 2.8 mg/kg; ED50 ([34]; po): 14.3 mg/kg; ED50 ([34]; sc): < 2.5 mg/kg
